Drawing on patent US6541491B1, “4-mercaptopyrrolidine derivatives as farnesyl transferase inhibitors” (Zeneca Limited, priority 1995, dated 2003), this text covers melting point and IC50 for 2 compounds.

Structures can show the parent of a compound that is named as a salt.

A word on the melting point: it is the temperature, or range, at which the solid turns liquid. In general, IC50 refers to the concentration that gives 50% inhibition.

In data set [1] the target is T1, Farnesyl protein transferase (FPT) (Homo sapiens, UniProt P49354+P49356).
T1 construct: partially purified from human placenta by ammonium sulphate fractionation; from tissue; host or cells: human placenta
Briefly: Farnesyl protein transferase (FPT) inhibition, tritiated farnesyl pyrophosphate incorporation into ras-CVIM. It counts as biochemical. The conditions noted are these: FPT partially purified from human placenta; 300 nM tritiated farnesyl pyrophosphate, 120 nM ras-CVIM, 20 minutes at 37°. As for the experimental part:
Biological activity was tested as follows. Farnesyl protein transferase (FPT) was partially purified from human placenta by ammonium sulphate fractionation followed by a single Q-Sepharose® (Pharmacia. Inc) anion exchange chromatography essentially as described by Ray and Lopez-Belmonte (Ray K P and Lopez-Belmonte J (1992) Biochemical Society Transations 20 494-497). The substrate for FPT was Kras (CVIM C-terminal sequence). The cDNA for oncogenic val 12 variant of human c-Ki-ras-24B was obtained from the plasmid pSW11-1(ATCC). This was then subcloned into the polylinker of a suitable expression vector e.g. plC 147. The Kras was obtained after expression in the E. coli strain, BL21. The expression and purification of c-KI-ras-24B and the vall2 variant in E. coli has also been reported by Lowe et al (Lowe P N et al. J. Biol. Chem. (1991) 266 1672-1678).
Incubations with enzyme contained 300 nM tritiated farnesyl pyrophosphate (DuPont/New England Nuclear), 120 nM ras-CVIM, 50 mM Tris HCl pH 8.0. 5 mM MgCl2, 10 μM ZnCl2, 5 mM dithiotheitol and compounds were added at appropriate concentrations in DMSO (3% final concentration in test and vehicle control). […] Precipitated protein was then collected onto glass fibre filter mats (B) using a Tomtec® cell harvester and tritiated label was measured in a Wallac® 1204 Betaplate scintillation counter.

On to `O=C(NCc1ccc(Cl)c(Cl)c1)c1ccc(C(=O)NC[C@@H]2C[C@H](S)CN2)nc1` (as salt: salt) [Example 13, 5-[N-(3,4-dichlorobenzyl)carbamoyl]-N-((2S,4S)-4-sulfanylpyrrolidin-2-yl-methyl)pyridine-2-carboxamide], for which the melting point was in the range of 101 to 105 °C. On to `C=CCOC(=O)c1cc(NC(=O)[C@@H]2C[C@H](SC(C)=O)CN2C(=O)OCc2ccc([N+](=O)[O-])cc2)cc(C(=O)N(C)OC)c1` [Example 7, 5 {[(2S,4S),4-acetylsulfanyl-1-(4-nitro-benzyloxycarbonyl)-pyrrolidine-2-carbonyl]-amino}-3(N-methyl-methoxycarbamoyl)-benzoic acid allyl ester], for which the IC50 in data set [1] is approximately 500 nM.
